Results as given in PubChem BioAssay AID1963984 (Molecular Pharmacology Branch, DTP, NCI, 2024).

Tested on: 233499-124-R-J3-PDC spheroids with HUVEC/MSC, viability
Assay: Anticancer human tumor 233499-124-R-J3-PDC patient-derived colon adenocarcinoma cell line growth inhibition [PI3K]
Details: for IC50: curve of first compound; for viability, T/C: stronger effect = lower value
Outline: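 Spheroid viability read-out. Co-cultures contained the tumor line plus HUVEC and human MSCs. Each agent was paired with a PI3K inhibitor (inavolisib, alpelisib, duvelisib, copanlisib) across half-log dilutions starting at clinical Cmax, or at 10 microM when Cmax was unknown.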

[1] = second compound 0.0316 µM, first compound 0.0316 µM
[2] = second compound 0.0316 µM, first compound 0.1 µM
[3] = second compound 0.1 µM, first compound 0.0316 µM
[4] = second compound 0.1 µM, first compound 0.1 µM
[5] = second compound 0.316 µM, first compound 0.0316 µM
[6] = second compound 0.316 µM, first compound 0.1 µM
[7] = second compound 1 µM, first compound 0.0316 µM
[8] = second compound 1 µM, first compound 0.1 µM
[9] = second compound 3.16 µM, first compound 0.0316 µM
[10] = second compound 3.16 µM, first compound 0.1 µM
[11] = second compound 10 µM, first compound 0.0316 µM
[12] = second compound 10 µM, first compound 0.1 µM
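Also: spheroids exposed to agents for seven days before readout.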
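For viability, T/C in this document: percent viability relative to DMSO vehicle control taken as 100%.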

## CC(C)n1nc(-c2ccc3oc(N)nc3c2)c2c(N)ncnc21 + CC(Nc1ncnc2nc[nH]c12)c1cc2cccc(Cl)c2c(=O)n1-c1ccccc1
Second compound 0.0316 µM
  IC50: 0.0811 µM
Second compound 0.1 µM
  IC50: 0.0893 µM
Second compound 0.316 µM
  IC50: > 0.1 µM
Second compound 1 µM
  IC50: 0.083 µM
Second compound 3.16 µM
  IC50: > 0.1 µM
Second compound 10 µM
  IC50: 0.0909 µM
Second compound 0.0316 µM, first compound 0.000316 µM
  viability, T/C: 108%
Second compound 0.0316 µM, first compound 0.001 µM
  viability, T/C: 90.8%
Second compound 0.0316 µM, first compound 0.00316 µM
  viability, T/C: 104%
Second compound 0.0316 µM, first compound 0.01 µM
  viability, T/C: 79.4%
[1]
  viability, T/C: 73.2%
[2]
  viability, T/C: 44.5%
Second compound 0.1 µM, first compound 0.000316 µM
  viability, T/C: 96.3%
Second compound 0.1 µM, first compound 0.001 µM
  viability, T/C: 85.1%
Second compound 0.1 µM, first compound 0.00316 µM
  viability, T/C: 97.8%
Second compound 0.1 µM, first compound 0.01 µM
  viability, T/C: 79.3%
[3]
  viability, T/C: 84.2%
[4]
  viability, T/C: 45.9%
Second compound 0.316 µM, first compound 0.000316 µM
  viability, T/C: 93.2%
Second compound 0.316 µM, first compound 0.001 µM
  viability, T/C: 82.6%
Second compound 0.316 µM, first compound 0.00316 µM
  viability, T/C: 83.3%
Second compound 0.316 µM, first compound 0.01 µM
  viability, T/C: 95.9%
[5]
  viability, T/C: 75.2%
[6]
  viability, T/C: 81.7%
Second compound 1 µM, first compound 0.000316 µM
  viability, T/C: 88.5%
Second compound 1 µM, first compound 0.001 µM
  viability, T/C: 82.2%
Second compound 1 µM, first compound 0.00316 µM
  viability, T/C: 104%
Second compound 1 µM, first compound 0.01 µM
  viability, T/C: 93%
[7]
  viability, T/C: 83.2%
[8]
  viability, T/C: 43.3%
Second compound 3.16 µM, first compound 0.000316 µM
  viability, T/C: 83.4%
Second compound 3.16 µM, first compound 0.001 µM
  viability, T/C: 89.5%
Second compound 3.16 µM, first compound 0.00316 µM
  viability, T/C: 107%
Second compound 3.16 µM, first compound 0.01 µM
  viability, T/C: 67.7%
[9]
  viability, T/C: 74.3%
[10]
  viability, T/C: 64.8%
Second compound 10 µM, first compound 0.000316 µM
  viability, T/C: 82.4%
Second compound 10 µM, first compound 0.001 µM
  viability, T/C: 96.2%
Second compound 10 µM, first compound 0.00316 µM
  viability, T/C: 88.3%
Second compound 10 µM, first compound 0.01 µM
  viability, T/C: 79.7%
[11]
  viability, T/C: 78.8%
[12]
  viability, T/C: 47.2%

## CCCS(=O)(=O)Nc1ccc(F)c(C(=O)c2c[nH]c3ncc(-c4ccc(Cl)cc4)cc23)c1F + CC(Nc1ncnc2nc[nH]c12)c1cc2cccc(Cl)c2c(=O)n1-c1ccccc1
Second compound 0.0316 µM
  IC50: 4.97 µM
Second compound 0.1 µM
  IC50: 5.13 µM
Second compound 0.316 µM
  IC50: 5.49 µM
Second compound 1 µM
  IC50: 4.61 µM
Second compound 3.16 µM
  IC50: 4.58 µM
Second compound 10 µM
  IC50: 4.4 µM
[1]
  viability, T/C: 80.7%
[2]
  viability, T/C: 77.9%
Second compound 0.0316 µM, first compound 0.316 µM
  viability, T/C: 97.8%
Second compound 0.0316 µM, first compound 1 µM
  viability, T/C: 98.2%
Second compound 0.0316 µM, first compound 3.16 µM
  viability, T/C: 80%
Second compound 0.0316 µM, first compound 10 µM
  viability, T/C: 3.53%
[3]
  viability, T/C: 97.1%
[4]
  viability, T/C: 100%
Second compound 0.1 µM, first compound 0.316 µM
  viability, T/C: 90.6%
Second compound 0.1 µM, first compound 1 µM
  viability, T/C: 97.6%
Second compound 0.1 µM, first compound 3.16 µM
  viability, T/C: 82%
Second compound 0.1 µM, first compound 10 µM
  viability, T/C: 5.89%
[5]
  viability, T/C: 81.3%
[6]
  viability, T/C: 103%
Second compound 0.316 µM, first compound 0.316 µM
  viability, T/C: 93.6%
Second compound 0.316 µM, first compound 1 µM
  viability, T/C: 94.6%
Second compound 0.316 µM, first compound 3.16 µM
  viability, T/C: 93.2%
Second compound 0.316 µM, first compound 10 µM
  viability, T/C: 3.19%
[7]
  viability, T/C: 90.3%
[8]
  viability, T/C: 99.7%
Second compound 1 µM, first compound 0.316 µM
  viability, T/C: 99.7%
Second compound 1 µM, first compound 1 µM
  viability, T/C: 96.5%
Second compound 1 µM, first compound 3.16 µM
  viability, T/C: 71.8%
Second compound 1 µM, first compound 10 µM
  viability, T/C: 5.59%
[9]
  viability, T/C: 94.7%
[10]
  viability, T/C: 99.2%
Second compound 3.16 µM, first compound 0.316 µM
  viability, T/C: 90.6%
Second compound 3.16 µM, first compound 1 µM
  viability, T/C: 85.7%
Second compound 3.16 µM, first compound 3.16 µM
  viability, T/C: 74.3%
Second compound 3.16 µM, first compound 10 µM
  viability, T/C: 2.26%
[11]
  viability, T/C: 78.5%
[12]
  viability, T/C: 92.2%
Second compound 10 µM, first compound 0.316 µM
  viability, T/C: 92.1%
Second compound 10 µM, first compound 1 µM
  viability, T/C: 74.8%
Second compound 10 µM, first compound 3.16 µM
  viability, T/C: 70.6%
Second compound 10 µM, first compound 10 µM
  viability, T/C: 3.63%
